Legend:
Type in all cases: in vivo
[1] = tested on: wheat (Triticum aestivum); experiment: Test A greenhouse herbicide test, pre- and postemergence; conditions: Postemergence; for Plant response rating, Wheat: 125 g ai/ha, 0 to 100 scale where 0 is no effect and 100 is complete control; for Wheat plant response rating: 500 g ai/ha, 0 to 100 scale, 0 is no effect, 100 is complete control
From the text: (§1) Seeds of plant species selected from barnyardgrass (Echinochloa crus-galli), kochia (Kochia scoparia), ragweed (common ragweed, Ambrosia elatior), ryegrass, Italian (Italian ryegrass, Lolium multiflorum), crabgrass, large (large crabgrass, Digitaria sanguinalis), foxtail, giant (giant foxtail, Setaria faberii), momingglory (Ipomoea spp.), pigweed (Amaranthus retroflexus), velvetleaf (Abutilon theophrasti), wheat (Triticum aestivum), and corn (Zea mays) were planted into a blend of loam soil and sand and treated preemergence with a directed soil spray using test chemicals formulated in a non-phytotoxic solvent mixture which included a surfactant.
(§2) At the same time, plants selected from these crop and weed species and also blackgrass (Alopecurus myosuroides), and galium (catchweed bedstraw, Galium aparine) were planted in pots containing the same blend of loam soil and sand and treated with postemergence applications of test chemicals formulated in the same manner. Plants ranged in height from 2 to 10 cm and were in the one- to two-leaf stage for the postemergence treatment. Treated plants and untreated controls were maintained in a greenhouse for approximately 10 d, after which time all treated plants were compared to untreated controls and visually evaluated for injury. Plant response ratings, summarized in Table A, are based on a 0 to 100 scale where 0 is no effect and 100 is complete control. A dash (-) response means no test result.

[2] = tested on: corn (Zea mays); experiment: as above; conditions: Postemergence; for Plant response rating, Corn: 125 g ai/ha, 0 to 100 scale where 0 is no effect and 100 is complete control; for Corn plant response rating: 500 g ai/ha, 0 to 100 scale, 0 is no effect, 100 is complete control
From the text: as §1, §2

[3] = tested on: ragweed (common ragweed, Ambrosia elatior); experiment: as above
From the text: as §1, §2

[4] = tested on: kochia (Kochia scoparia); experiment: as above
From the text: as §1, §2

[5] = tested on: pigweed (Amaranthus retroflexus); experiment: as above
From the text: as §1, §2

[6] = tested on: barnyardgrass (Echinochloa crus-galli); experiment: as above
From the text: as §1, §2

[7] = tested on: foxtail, giant (giant foxtail, Setaria faberii); experiment: as above
From the text: as §1, §2

[8] = tested on: ryegrass, Italian (Italian ryegrass, Lolium multiflorum); experiment: as above
From the text: as §1, §2

[9] = tested on: blackgrass (Alopecurus myosuroides); experiment: Test A greenhouse herbicide test, postemergence; conditions: for Plant response rating, Blackgrass: 125 g ai/ha, 0 to 100 scale where 0 is no effect and 100 is complete control; for Blackgrass plant response rating: 500 g ai/ha, 0 to 100 scale, 0 is no effect, 100 is complete control
Outline: (§3)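 Pot-grown plants (loam soil/sand blend), 2–10 cm tall at the one- to two-leaf stage, received postemergence sprays of formulated test chemical. After about 10 d in the greenhouse, injury was rated visually against untreated controls on a 0 (no effect) to 100 (complete control) scale.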

[10] = tested on: galium (catchweed bedstraw, Galium aparine); experiment: Test A greenhouse herbicide test, postemergence; conditions: for Plant response rating, Galium: 125 g ai/ha, 0 to 100 scale where 0 is no effect and 100 is complete control; for Galium plant response rating: 500 g ai/ha, 0 to 100 scale, 0 is no effect, 100 is complete control
Outline: as §3

[11] = tested on: ducksalad (Heteranthera limosa); experiment: Test B flooded paddy test; conditions: 250 g ai/ha, Flood; visual rating on scale of 0 to 100 where 0 is no effect and 100 is complete control; 13 to 15 d after treatment
Outline: (§4)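 Plants grown to the 2-leaf stage. At treatment, pots were flooded to 3 cm above the soil, compound was applied directly to the paddy water, and that depth was held throughout. After 13 to 15 d in the greenhouse, response was rated visually against controls on a 0 (no effect) to 100 (complete control) scale.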

[12] = tested on: sedge, umbrella (small-flower umbrella sedge, Cyperus difformis); experiment: Test B flooded paddy test; conditions: 250 g ai/ha, Flood; visual rating on scale of 0 to 100 where 0 is no effect and 100 is complete control; 13 to 15 d after treatment
Outline: as §4

[13] = tested on: rice (Oryza sativa); experiment: Test B flooded paddy test; conditions: 250 g ai/ha, Flood; visual rating on scale of 0 to 100 where 0 is no effect and 100 is complete control; 13 to 15 d after treatment
Outline: as §4

[14] = tested on: barnyardgrass (Echinochloa crus-galli); experiment: Test B flooded paddy test; conditions: 250 g ai/ha, Flood; visual rating on scale of 0 to 100 where 0 is no effect and 100 is complete control; 13 to 15 d after treatment
Outline: as §4

[15] = Postemergence, 125 g ai/ha, 0 to 100 scale where 0 is no effect and 100 is complete control
[16] = Postemergence, 500 g ai/ha, 0 to 100 scale, 0 is no effect, 100 is complete control
[17] = Preemergence, 125 g ai/ha, 0 to 100 scale where 0 is no effect and 100 is complete control
[18] = Preemergence, 500 g ai/ha, 0 to 100 scale, 0 no effect, 100 complete control

Structure (SMILES)	Plant response rating, Wheat [1]	Wheat plant response rating [1]	Plant response rating, Corn [2]	Corn plant response rating [2]	Plant response rating, Ragweed [3, 15]	Ragweed plant response rating [3, 16]	Ragweed plant response rating [3, 17]	Plant response rating, Ragweed [3, 18]	Plant response rating, Kochia [4, 15]	Kochia plant response rating [4, 16]	Kochia plant response rating [4, 17]	Plant response rating, Kochia [4, 18]	Plant response rating, Pigweed [5, 15]	Pigweed plant response rating [5, 16]	Pigweed plant response rating [5, 17]	Plant response rating, Pigweed [5, 18]	Plant response rating, Barnyardgrass [6, 15]	Barnyardgrass plant response rating [6, 16]	Barnyardgrass plant response rating [6, 17]	Plant response rating, Barnyardgrass [6, 18]	also measured
Cn1ncc(O)c(-c2cccc3ccccc23)c1=O [Compound 49]	0	0	0	0	0	10	0	10	0	10	0	0	20	40	0	40	0	20	0	0	Plant response rating, Foxtail, Giant [7, 15]: 0; Foxtail, Giant plant response rating [7, 16]: 20; Foxtail, Giant plant response rating [7, 17]: 0; Plant response rating, Foxtail, Giant [7, 18]: 10; Plant response rating, Ryegrass, Italian [8, 15]: 30; Ryegrass, Italian plant response rating [8, 16]: 50; Ryegrass, Italian plant response rating [8, 17]: 0; Plant response rating, Ryegrass, Italian [8, 18]: 30; Plant response rating, Blackgrass [9]: 10; Blackgrass plant response rating [9]: 30; Plant response rating, Galium [10]: 50; Galium plant response rating [10]: 80; Plant response rating, Ducksalad [11]: 0; Plant response rating, Sedge, Umbrella [12]: 0; Plant response rating, Rice [13]: 0; Plant response rating, Barnyardgrass [14]: 0
COc1ccc2sc(C)c(-c3c(O)c(C)nn(C)c3=O)c2c1 [Compound 53]	0	20	0	0	60	70	0	50	70	80	50	70	60	70	50	70	0	20	0	20	Plant response rating, Foxtail, Giant [7, 15]: 0; Foxtail, Giant plant response rating [7, 16]: 30; Foxtail, Giant plant response rating [7, 17]: 50; Plant response rating, Foxtail, Giant [7, 18]: 50; Plant response rating, Ryegrass, Italian [8, 15]: 40; Ryegrass, Italian plant response rating [8, 16]: 70; Ryegrass, Italian plant response rating [8, 17]: 10; Plant response rating, Ryegrass, Italian [8, 18]: 50; Plant response rating, Blackgrass [9]: 0; Blackgrass plant response rating [9]: 30; Plant response rating, Galium [10]: 60; Galium plant response rating [10]: 80; Plant response rating, Ducksalad [11]: 0; Plant response rating, Sedge, Umbrella [12]: 0; Plant response rating, Rice [13]: 0; Plant response rating, Barnyardgrass [14]: 0
COc1ccc(-c2c(O)c(C)nn(C)c2=O)c2ccccc12 [Compound 58]	0	20	0	0	0	60	70	80	20	90	20	80	0	20	0	20	0	0	0	20	Plant response rating, Foxtail, Giant [7, 15]: 0; Foxtail, Giant plant response rating [7, 16]: 10; Foxtail, Giant plant response rating [7, 17]: 0; Plant response rating, Foxtail, Giant [7, 18]: 0; Plant response rating, Ryegrass, Italian [8, 15]: 60; Ryegrass, Italian plant response rating [8, 16]: 80; Ryegrass, Italian plant response rating [8, 17]: 70; Plant response rating, Ryegrass, Italian [8, 18]: 100; Plant response rating, Blackgrass [9]: 20; Blackgrass plant response rating [9]: 50; Plant response rating, Galium [10]: 70; Galium plant response rating [10]: 100; Plant response rating, Ducksalad [11]: 0; Plant response rating, Sedge, Umbrella [12]: 0; Plant response rating, Rice [13]: 0; Plant response rating, Barnyardgrass [14]: 0
CCC(=O)Oc1c(C)nn(C)c(=O)c1-c1ccc(Cl)c2ccccc12 [Compound 62]	0	50	10	30	100	100	70	90	100	100	90	90	100	100	100	100	70	90	50	90	Plant response rating, Foxtail, Giant [7, 15]: 80; Foxtail, Giant plant response rating [7, 16]: 90; Foxtail, Giant plant response rating [7, 17]: 50; Plant response rating, Foxtail, Giant [7, 18]: 90; Plant response rating, Ryegrass, Italian [8, 15]: 100; Ryegrass, Italian plant response rating [8, 16]: 100; Ryegrass, Italian plant response rating [8, 17]: 100; Plant response rating, Ryegrass, Italian [8, 18]: 100; Plant response rating, Blackgrass [9]: 70; Blackgrass plant response rating [9]: 80; Plant response rating, Galium [10]: 100; Galium plant response rating [10]: 100; Plant response rating, Ducksalad [11]: 20; Plant response rating, Sedge, Umbrella [12]: 75; Plant response rating, Rice [13]: 0; Plant response rating, Barnyardgrass [14]: 20
COC(=O)Oc1c(C)nn(C)c(=O)c1-c1ccc(Cl)c2ccccc12 [Compound 63]	0	40	0	40	100	100	80	90	100	100	100	100	100	100	100	100	60	90	80	90	Plant response rating, Foxtail, Giant [7, 15]: 70; Foxtail, Giant plant response rating [7, 16]: 90; Foxtail, Giant plant response rating [7, 17]: 40; Plant response rating, Foxtail, Giant [7, 18]: 70; Plant response rating, Ryegrass, Italian [8, 15]: 100; Ryegrass, Italian plant response rating [8, 16]: 100; Ryegrass, Italian plant response rating [8, 17]: 100; Plant response rating, Ryegrass, Italian [8, 18]: 100; Plant response rating, Blackgrass [9]: 70; Blackgrass plant response rating [9]: 80; Plant response rating, Galium [10]: 100; Galium plant response rating [10]: 100; Plant response rating, Ducksalad [11]: 30; Plant response rating, Sedge, Umbrella [12]: 65; Plant response rating, Rice [13]: 0; Plant response rating, Barnyardgrass [14]: 0
